PubChem BioAssay (NCI)
Several values for one entry are separate records, joined by “and”; a condition that tells them apart may be missing. Equal values may be shown once.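 Cells were grown in 96-well plates and exposed to each compound for 48 hours at five concentrations; endpoints were interpolated linearly between bracketing concentrations, or set to the highest concentration if not reached. GI50 = concentration required for 50% inhibition of growth. TGI is the concentration that stops growth completely.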

Legend:
Experiment in all cases: NCI anticancer screen, dose series, 48 h
HCT-116 colon = test system: HCT-116 colon
IGROV1 ovarian = test system: IGROV1 ovarian
OVCAR-8 ovarian = test system: OVCAR-8 ovarian
SK-MEL-5 melanoma = test system: SK-MEL-5 melanoma
786-0 renal = test system: 786-0 renal
NCI-H226 lung = test system: NCI-H226 lung
RXF 393 renal = test system: RXF 393 renal
NCI-H460 lung = test system: NCI-H460 lung
SW-620 colon = test system: SW-620 colon
M14 melanoma = test system: M14 melanoma

SMILES	TGI (HCT-116 colon)	TGI (IGROV1 ovarian)	TGI (OVCAR-8 ovarian)	GI50 (SK-MEL-5 melanoma)	TGI (SK-MEL-5 melanoma)	GI50 (786-0 renal)	TGI (786-0 renal)	TGI (NCI-H226 lung)	TGI (RXF 393 renal)	GI50 (NCI-H460 lung)	TGI (NCI-H460 lung)	TGI (SW-620 colon)	TGI (M14 melanoma)	GI50 (HCT-116 colon) [µM]	GI50 (IGROV1 ovarian) [µM]	GI50 (OVCAR-8 ovarian) [µM]	GI50 (NCI-H226 lung) [µM]	GI50 (RXF 393 renal) [µM]	GI50 (SW-620 colon) [µM]	GI50 (M14 melanoma) [µM]
COc1cc2c3cc1Oc1c(OC)c(OC)cc4c1C(Cc1ccc(cc1)Oc1cc(ccc1O)CC3N(C)CC2)N(C)CC4 (configuration not stated)	21 µM and > 100 µM	43.8 µM and 29.4 µM	> 100 µM and 34.8 µM	6.2 µM and 1.81 µM	18.7 µM and 3.72 µM	> 100 µM and 10.2 µM	> 100 µM and 38.5 µM	40.6 µM and 37.5 µM	5.69 µM and 4.03 µM	14.5 µM and 4.72 µM	32.6 µM and 17.3 µM	22.6 µM and 45.8 µM	4.27 µM and 4.79 µM							
CCc1c2c(nc3ccc(OCc4ccc(B5OC(C)(C)C(C)(C)O5)cc4)cc13)-c1cc3c(c(=O)n1C2)COC(=O)[C@]3(O)CC	> 100 µM	> 100 µM	> 100 µM	0.0372 µM	0.338 µM	0.02 µM	0.0691 µM	0.454 µM	0.185 µM	0.0125 µM	1.24 µM	> 100 µM		0.0169	0.134	0.0296	0.0214	0.027	0.0258	0.0141
CN(C)N=Nc1nn(C(=O)Nc2ccc(Cc3ccccc3)cc2)c2ccccc12	> 100 µM	> 100 µM	> 100 µM	0.122 µM	1.09 µM	5.25 µM	> 100 µM	> 100 µM	> 100 µM	0.111 µM	> 100 µM	> 100 µM	> 100 µM	> 100	43.5	4.1	> 100	> 28.9	0.199	0.168
Cc1ccc([N+](=O)[O-])c2c(NCCC[N+](C)(C)[O-])ccnc12	> 100 µM	67.3 µM	> 100 µM		24.6 µM		> 100 µM	> 100 µM	> 100 µM		80.1 µM	> 100 µM	> 100 µM							
C=C1C(=O)O[C@H]2[C@H]1CC/C(CNC(=O)/C=C/c1ccc(Cl)cc1Cl)=C\CC[C@@]1(C)O[C@@H]21	2 µM	3.41 µM	3.44 µM	1.63 µM	3.02 µM	1.2 µM	2.56 µM	5.72 µM	1.63 µM	1.76 µM	3.52 µM	2.68 µM	3.37 µM	0.647	1.63	1.37	2.33	0.403	1.28	1.44
COc1cc(/C=C\c2ccc(Cl)cc2)cc(OC)c1OC	> 100 µM	> 100 µM	> 100 µM		12.8 µM		20.3 µM	6.84 µM	> 100 µM		> 100 µM	> 100 µM	22.7 µM							
N#CC(C(=O)CCC(=O)Nc1ccc(Cl)c(Cl)c1)c1ccc(Cl)cc1 (configuration not stated)	> 100 µM	> 100 µM	> 100 µM		> 100 µM		> 100 µM	> 100 µM	> 100 µM		> 100 µM	> 100 µM	> 100 µM							
O=C1NC(SCc2ccc(F)cc2)=N/C1=C/c1cccc(OCc2ccc(Cl)cc2)c1	14.9 µM	> 100 µM	> 100 µM	> 100 µM	> 100 µM	2.88 µM	8.8 µM	> 100 µM	48.9 µM	4.39 µM	30.3 µM	> 100 µM	> 100 µM	3.27	4.91	18.8	5.42	9.22	20	47.4
O=C(NC1C=Nc2ccccc2NC1=O)c1ccccc1Cl (configuration not stated)	> 100 µM	> 100 µM	> 100 µM		> 100 µM		> 100 µM	> 100 µM	62.9 µM		> 100 µM	29 µM	> 100 µM							
O=C(CN1C(=O)S/C(=C\C(Cl)=C\c2ccccc2)C1=O)NCCCn1ccnc1	3.14 µM	4.23 µM	> 100 µM	1.68 µM	3.06 µM	1.98 µM	3.91 µM	5.19 µM	3.68 µM	2.21 µM	6.44 µM	3.67 µM	3.59 µM	1.53	1.82	2.85	2.16	1.83	1.72	1.66
O=c1[nH]cnc2c1ncn2CCCCO	> 100 µM	> 100 µM	> 100 µM		> 100 µM		> 100 µM	> 100 µM	> 100 µM		> 100 µM	> 100 µM	> 100 µM							
Clc1ccc(/C=C/c2nc(Cl)c(-c3ccc(Cl)cc3)c(Cl)n2)cc1	> 100 µM	> 100 µM	> 100 µM		> 100 µM		> 100 µM	> 100 µM	> 100 µM		> 100 µM	> 100 µM	> 100 µM							
O=C(Cn1c2ccccc2c2ccncc21)N/N=C\c1ccc2ccccc2c1	15 µM	38.3 µM	> 100 µM	23 µM	> 100 µM	13.8 µM	30 µM	65.2 µM	54.4 µM	13.9 µM	39.9 µM	> 100 µM	50.2 µM	3.51	13	27.8	21.9	19	12.7	16.5
COc1cc(-c2oc3c(OC)c(O)cc(O)c3c(=O)c2OC)ccc1O	> 100 µM	15.3 µM	> 100 µM		20.4 µM		> 100 µM	97.2 µM	51.5 µM		> 93.5 µM	> 100 µM	> 31.3 µM							
Cn1ncnc1C1c2n[nH]c(=O)c3cc(F)cc(c23)NC1c1ccc(F)cc1 (configuration not stated)	> 100 µM	> 100 µM	> 100 µM	> 100 µM	> 100 µM	> 100 µM	> 100 µM	> 100 µM	> 100 µM	0.193 µM	> 100 µM	> 100 µM	> 100 µM	25.8	> 100	> 100	> 100	22.2	> 41	3.52
CN(C)C(=S)SCC(N)=O	> 100 µM	> 100 µM	> 100 µM		> 100 µM		> 100 µM	> 100 µM	> 100 µM		> 100 µM	> 100 µM	> 100 µM							
COc1ccc(CN=C(N)N=C(N)N)cc1OC	> 1000 µM	> 1000 µM	> 1000 µM	223 µM	> 1000 µM	> 1000 µM	> 1000 µM	> 1000 µM	> 1000 µM	> 1000 µM	> 1000 µM	> 1000 µM	> 1000 µM	> 1000	> 1000	444	619	> 1000	> 1000	> 1000
NS(=O)(=O)c1ccc(N2N=C(c3cccs3)CC2c2ccccc2O)cc1 (configuration not stated)	3.96 µM	14.2 µM	2.78 µM	1.47 µM	5.68 µM	1.84 µM	8.45 µM	17.4 µM	2.2 µM	1.16 µM	4.24 µM	4.83 µM	4.1 µM	1.15	1.6	0.907	3.4	0.733	1.16	1.07
CCCCN(CCCC)CCC(O)c1cc2ccc(C(F)(F)F)cc2c2cc(C(F)(F)F)ccc12 (configuration not stated)	3.04 µM	14.5 µM	4.25 µM	1.76 µM	3.15 µM	1.55 µM	3.2 µM	10.5 µM	3.16 µM	1.84 µM	4.09 µM	5.13 µM	3.77 µM	1.59	3.47	1.92	2.88	1.56	1.76	1.82
[O-][n+]1c2cc(CN3CCOCC3)c(CN3CCOCC3)cc2[n+]([O-])c2c(O)cccc21	6.05 µM	13 µM	7.12 µM		> 37.9 µM		6.03 µM	30.9 µM	5.11 µM		4.5 µM	7.16 µM	13.2 µM							
COc1ccc(OC)c(/C=N/N=C2\C(=O)Nc3c(Cl)cc(Cl)cc32)c1	> 100 µM	> 100 µM	> 100 µM		> 100 µM		> 100 µM	> 100 µM	> 100 µM		> 100 µM	> 100 µM	> 100 µM							
COc1cc2c(Cc3cc(OCc4ccccc4)ccc3N)nccc2c(OC)c1OC	> 10 µM	> 10 µM	> 10 µM		> 10 µM		> 10 µM	> 10 µM	> 10 µM		> 10 µM	> 10 µM	> 10 µM							
O=CN1N=C(c2ccc(Nc3ccnc4cc(Cl)ccc34)cc2)CC1c1ccc(Cl)cc1 (configuration not stated)	> 100 µM	> 100 µM	> 100 µM	0.809 µM	> 100 µM	0.908 µM	> 100 µM	> 100 µM	> 100 µM	0.592 µM	> 100 µM	> 100 µM	> 100 µM	0.499	5.01	3.22	4.66	1.88	0.478	0.622
